Measured values published in ChEMBL document CHEMBL4265942, “Four new antitumor metabolites isolated from a mutant 3-f-31 strain derived from Penicillium purpurogenum G59” (Eur J Med Chem, 2018).

Experiments:
HL-60 = assay: Antiproliferative activity against human HL60 cells assessed as inhibition of cell growth after 72 hrs by MTT assay; assay type: functional, cell-based; details: HL-60, 72 h
HCT-116 [1] = assay: Down regulation of ERK1/2 expression in human HCT116 cells after 48 hrs by Western blot analysis; assay type: functional, cell-based
HCT-116 [2] = assay: Down regulation of HSP90 expression in human HCT116 cells after 48 hrs by Western blot analysis; assay type: functional, cell-based
HCT-116 [3] = assay: Down regulation of Raf1 expression in human HCT116 cells after 48 hrs by Western blot analysis; assay type: functional, cell-based
PANC-1 = assay: Antiproliferative activity against human PANC1 cells assessed as inhibition of cell growth after 72 hrs by sulforhodamine B assay; assay type: functional, cell-based; details: PANC-1, 72 h
NCI-H1975 = assay: Antiproliferative activity against human NCI-H1975 cells assessed as inhibition of cell growth after 72 hrs by sulforhodamine B assay; assay type: functional, cell-based; details: NCI-H1975, 72 h
A549 = assay: Antiproliferative activity against human A549 cells assessed as inhibition of cell growth after 72 hrs by sulforhodamine B assay; assay type: functional, cell-based; details: A549, 72 h
L929 = assay: Cytotoxicity against mouse L929 cells assessed as inhibition of cell growth after 72 hrs by MTT assay; assay type: cell-based; details: L929, 72 h
LS180 = assay: Antiproliferative activity against human LS180 cells assessed as inhibition of cell growth after 72 hrs by sulforhodamine B assay; assay type: functional, cell-based; details: LS180, 72 h
HCT-116 [4] = assay: Down regulation of AKT expression in human HCT116 cells after 48 hrs by Western blot analysis; assay type: functional, cell-based
HCT-116 [5] = assay: Down regulation of phosphorylated STAT3 expression in human HCT116 cells after 48 hrs by Western blot analysis; assay type: functional, cell-based
Mus musculus [6] = assay: Toxicity in BALB/c nu/nu mouse xenografted with human HCT116 cells assessed as spleen index at 10 mg/kg administered peritoneally once daily for 14 days measured 24 hrs post last dose (reference value: 0.41 +/- 0.08%); assay type: organism-based; details: in vivo, ip
HepG2 = assay: Antiproliferative activity against human HepG2 cells assessed as inhibition of cell growth after 72 hrs by sulforhodamine B assay; assay type: functional, cell-based; details: HepG2, 72 h
K562 = assay: Antiproliferative activity against human K562 cells assessed as inhibition of cell growth after 72 hrs by MTT assay; assay type: functional, cell-based; details: K562, 72 h
PC-3 = assay: Antiproliferative activity against human PC3 cells assessed as inhibition of cell growth after 72 hrs by sulforhodamine B assay; assay type: functional, cell-based; details: PC-3, 72 h
HCT-116 [7] = assay: Antitumor activity against human HCT116 cells xenografted in BALB/c nu/nu mouse assessed as tumor growth inhibition at 5 mg/kg administered peritoneally once daily for 14 days measured 24 hrs post last dose relative to control; assay type: functional; details: read-out: TGI
HCT-116 [8] = assay: Down regulation of survivin expression in human HCT116 cells after 48 hrs by Western blot analysis; assay type: functional, cell-based
Mus musculus [9] = assay: Toxicity in BALB/c nu/nu mouse xenografted with human HCT116 cells assessed as spleen index at 20 mg/kg administered peritoneally once daily for 14 days measured 24 hrs post last dose (reference value: 0.41 +/- 0.08%); assay type: organism-based; details: in vivo, ip
HCT-116 [10] = assay: Antiproliferative activity against human HCT116 cells assessed as inhibition of cell growth after 72 hrs by sulforhodamine B assay; assay type: functional, cell-based; details: HCT-116, 72 h
HeLa = assay: Antiproliferative activity against human HeLa cells assessed as inhibition of cell growth after 72 hrs by sulforhodamine B assay; assay type: functional, cell-based
MCF7 = assay: Antiproliferative activity against human MCF7 cells assessed as inhibition of cell growth after 72 hrs by sulforhodamine B assay; assay type: functional, cell-based; details: MCF7, 72 h
HCT-116 [11] = assay: Antitumor activity against human HCT116 cells xenografted in BALB/c nu/nu mouse assessed as tumor growth inhibition at 20 mg/kg administered peritoneally once daily for 14 days measured 24 hrs post last dose relative to control; assay type: functional; details: read-out: TGI
SW480 = assay: Antiproliferative activity against human SW480 cells assessed as inhibition of cell growth after 72 hrs by sulforhodamine B assay; assay type: functional, cell-based; details: SW480, 72 h
BXPC-3 = assay: Antiproliferative activity against human BxPC3 cells assessed as inhibition of cell growth after 72 hrs by sulforhodamine B assay; assay type: functional, cell-based; details: BXPC-3, 72 h
HCT-116 [12] = assay: Down regulation of STAT3 expression in human HCT116 cells after 48 hrs by Western blot analysis; assay type: functional, cell-based
HT-29 = assay: Antiproliferative activity against human HT-29 cells assessed as inhibition of cell growth after 72 hrs by sulforhodamine B assay; assay type: functional, cell-based; details: HT-29, 72 h
Mus musculus [13] = assay: Toxicity in BALB/c nu/nu mouse xenografted with human HCT116 cells assessed as spleen index at 5 mg/kg administered peritoneally once daily for 14 days measured 24 hrs post last dose (reference value: 0.41 +/- 0.08%); assay type: organism-based; details: in vivo, ip
HCT-116 [14] = assay: Antitumor activity against human HCT116 cells xenografted in BALB/c nu/nu mouse assessed as tumor growth inhibition at 10 mg/kg administered peritoneally once daily for 14 days measured 24 hrs post last dose relative to control; assay type: functional; details: read-out: TGI

SMILES: CCCCCC[C@@H](C)C[C@@H](C)/C=C/C(=O)N[C@H]1C[C@@]2(O[C@H]1O)[C@@H]1O[C@@H]1[C@](O)(CC(C)=O)[C@@H]1O[C@@H]12
- IC50 (HL-60): 4.55 µM
- Activity (HCT-116 [1]): Dose-dependent effect
- Activity (HCT-116 [2]): Dose-dependent effect
- Activity (HCT-116 [3]): Dose-dependent effect
- IC50 (PANC-1): 4.04 µM
- IC50 (NCI-H1975): 3.75 µM
- IC50 (A549): 10.9 µM
- IC50 (L929): 3.8 µM
- IC50 (LS180): 17.4 µM
- Activity (HCT-116 [4]): Dose-dependent effect
- Activity (HCT-116 [5]): Dose-dependent effect
- Activity_index (Mus musculus [6]): 0.37
- IC50 (HepG2): 5.21 µM
- IC50 (K562): 4.2 µM
- IC50 (PC-3): 8.7 µM
- inhibition in vivo at 5 mg/kg (HCT-116 [7]): 51.6%
- Activity (HCT-116 [8]): Dose-dependent effect
- Activity_index (Mus musculus [9]): 0.48
- IC50 (HCT-116 [10]): 1.91 µM
- IC50 (HeLa): 5.09 µM
- IC50 (MCF7): 3.73 µM
- inhibition in vivo at 20 mg/kg (HCT-116 [11]): 37.9%
- IC50 (SW480): 4.64 µM
- IC50 (BXPC-3): 5.96 µM
- Activity (HCT-116 [12]): Dose-dependent effect
- IC50 (HT-29): 8.4 µM
- Activity_index (Mus musculus [13]): 0.95
- inhibition in vivo at 10 mg/kg (HCT-116 [14]): 37.8%
